Numbers after ± are expanded uncertainties.
Legend:
[1] = activity coefficient (dimensionless); of the first substance listed, at infinite dilution; xn = mol fraction of the nth substance listed; conditions: Liquid, Chromatography, x1 = 0
[2] = 101.33 kPa, Liquid, Vibrating tube method

activity coefficient ([1]; 308.15 K)	activity coefficient ([1]; 318.15 K)	activity coefficient ([1]; 328.15 K)	activity coefficient ([1]; 338.15 K)	activity coefficient ([1]; 348.15 K)	activity coefficient ([1]; 358.15 K)	activity coefficient ([1]; 298.15 K)	mass density ([2]; 298.15 K) [kg/m3]	mass density ([2]; 308.15 K) [kg/m3]	mass density ([2]; 318.15 K) [kg/m3]	mass density ([2]; 328.15 K) [kg/m3]	mass density ([2]; 338.15 K) [kg/m3]	mass density ([2]; 348.15 K) [kg/m3]	mass density ([2]; 358.15 K) [kg/m3]	SMILES
0.816 ± 0.053	0.833 ± 0.054	0.847 ± 0.054	0.861 ± 0.055	0.879 ± 0.056	0.796 ± 0.052	–	–	–	–	–	–	–	–	CCCC(C)=O [pentan-2-one] + CCn1cc[n+](C)c1.N#C[B-](C#N)(C#N)C#N
1.99 ± 0.14	1.82 ± 0.12	1.66 ± 0.11	1.51 ± 0.1	1.38 ± 0.09	1.29 ± 0.08	2.24 ± 0.15	–	–	–	–	–	–	–	O [water] + CCn1cc[n+](C)c1.N#C[B-](C#N)(C#N)C#N
2.41 ± 0.16	2.16 ± 0.15	1.95 ± 0.13	1.79 ± 0.12	1.65 ± 0.11	1.53 ± 0.1	2.72 ± 0.19	–	–	–	–	–	–	–	CCCCO [butan-1-ol] + CCn1cc[n+](C)c1.N#C[B-](C#N)(C#N)C#N
3.76 ± 0.26	3.76 ± 0.26	3.75 ± 0.26	3.74 ± 0.25	3.74 ± 0.25	3.73 ± 0.25	3.77 ± 0.26	–	–	–	–	–	–	–	C#CCCCC [1-hexyne] + CCn1cc[n+](C)c1.N#C[B-](C#N)(C#N)C#N
0.798 ± 0.052	0.821 ± 0.053	0.842 ± 0.054	0.861 ± 0.055	0.883 ± 0.056	0.771 ± 0.05	–	–	–	–	–	–	–	–	CCC(=O)CC [pentan-3-one] + CCn1cc[n+](C)c1.N#C[B-](C#N)(C#N)C#N
73.6 ± 5	67.4 ± 4.6	60.2 ± 4.1	54.8 ± 3.8	50.2 ± 3.4	46 ± 3.1	83.2 ± 5.7	–	–	–	–	–	–	–	CCCCCCCC [octane] + CCn1cc[n+](C)c1.N#C[B-](C#N)(C#N)C#N
0.949 ± 0.06	0.958 ± 0.06	0.966 ± 0.061	0.976 ± 0.061	0.983 ± 0.062	0.992 ± 0.062	0.938 ± 0.059	–	–	–	–	–	–	–	c1ccsc1 [thiophene] + CCn1cc[n+](C)c1.N#C[B-](C#N)(C#N)C#N
32 ± 2.2	29.9 ± 2	27.8 ± 1.9	25.9 ± 1.8	24.5 ± 1.7	23.1 ± 1.6	35 ± 2.4	–	–	–	–	–	–	–	C=CCCCCCC [oct-1-ene] + CCn1cc[n+](C)c1.N#C[B-](C#N)(C#N)C#N
1.11 ± 0.07	1.12 ± 0.07	1.14 ± 0.07	1.16 ± 0.07	1.17 ± 0.07	1.09 ± 0.07	–	–	–	–	–	–	–	–	CCCCC(C)=O [2-hexanone] + CCn1cc[n+](C)c1.N#C[B-](C#N)(C#N)C#N
47.9 ± 3.3	44.1 ± 3	39.9 ± 2.7	36.7 ± 2.5	34.3 ± 2.3	31.7 ± 2.2	53.4 ± 3.7	–	–	–	–	–	–	–	CCCCCCC [heptane] + CCn1cc[n+](C)c1.N#C[B-](C#N)(C#N)C#N
20.1 ± 1.4	19.1 ± 1.3	17.6 ± 1.2	16.6 ± 1.1	15.8 ± 1.1	14.9 ± 1	22 ± 1.5	–	–	–	–	–	–	–	CCCCC [pentane] + CCn1cc[n+](C)c1.N#C[B-](C#N)(C#N)C#N
19.9 ± 1.4	18.6 ± 1.3	17 ± 1.2	15.8 ± 1.1	14.8 ± 1	13.9 ± 1	21.9 ± 1.5	–	–	–	–	–	–	–	C1CCCCCC1 [cycloheptane] + CCn1cc[n+](C)c1.N#C[B-](C#N)(C#N)C#N
9.9 ± 0.7	9.5 ± 0.7	8.8 ± 0.6	8.4 ± 0.6	8 ± 0.5	7.6 ± 0.5	10.7 ± 0.7	–	–	–	–	–	–	–	C1CCCC1 [cyclopentane] + CCn1cc[n+](C)c1.N#C[B-](C#N)(C#N)C#N
1.2 ± 0.08	1.22 ± 0.08	1.24 ± 0.08	1.25 ± 0.08	1.28 ± 0.08	1.17 ± 0.07	–	–	–	–	–	–	–	–	CCCC(=O)CC [3-hexanone] + CCn1cc[n+](C)c1.N#C[B-](C#N)(C#N)C#N
15.2 ± 1	14.3 ± 1	13.2 ± 0.9	12.3 ± 0.8	11.6 ± 0.8	10.9 ± 0.7	16.7 ± 1.1	–	–	–	–	–	–	–	C1CCCCC1 [cyclohexane] + CCn1cc[n+](C)c1.N#C[B-](C#N)(C#N)C#N
–	–	–	–	–	–	–	1036.27 ± 0.26	1028.4 ± 0.25	1020.64 ± 0.25	1012.97 ± 0.24	1005.4 ± 0.24	997.91 ± 0.23	990.51 ± 0.23	CCn1cc[n+](C)c1.N#C[B-](C#N)(C#N)C#N [1-ethyl-3-methylimidazolium tetracyanoborate]
8.32 ± 0.57	8.07 ± 0.55	7.79 ± 0.53	7.6 ± 0.5	7.43 ± 0.51	7.24 ± 0.49	8.54 ± 0.58	–	–	–	–	–	–	–	CCCOCCC [dipropyl ether] + CCn1cc[n+](C)c1.N#C[B-](C#N)(C#N)C#N
6.92 ± 0.47	6.67 ± 0.45	6.44 ± 0.44	6.17 ± 0.42	6.01 ± 0.41	5.81 ± 0.4	7.25 ± 0.49	–	–	–	–	–	–	–	C1=CCCCC1 [cyclohexene] + CCn1cc[n+](C)c1.N#C[B-](C#N)(C#N)C#N
2.6 ± 0.18	2.61 ± 0.18	2.61 ± 0.18	2.61 ± 0.18	2.61 ± 0.18	2.61 ± 0.18	2.6 ± 0.18	–	–	–	–	–	–	–	CCc1ccccc1 [ethylbenzene] + CCn1cc[n+](C)c1.N#C[B-](C#N)(C#N)C#N

Reference: the NIST ThermoML archive (doi:10.1016/j.jct.2011.02.012)
